Reference: the supplement of paper PMC7796163
± gives the uncertainty stated by the source.

Tests used:
Assay in all cases: CYP enzyme activity (probe substrate metabolite formation) fold change vs solvent control; higher = stronger induction of CYP activity
Conditions in all cases: HepaRG
CYP2C19 = CYP2C19 (UniProt P33261)
Protocol: (§1)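 Differentiated HepaRG cells were treated with 1, 5 or 10 µM of each PAH (0.5% DMSO) for 12, 24 or 48 h, then incubated for 3 h at 37 °C with a cocktail of isoform-specific CYP substrates (phenacetin for CYP1A2, bupropion for CYP2B6, amodiaquine for CYP2C8, tolbutamide for CYP2C9, mephenytoin for CYP2C19, propafenone for CYP2D6, atorvastatin for CYP3A4). Metabolite formation was quantified by LC-MS as a measure of CYP activity and reported as fold change over solvent control (mean ± SD, n=3). Values below the LLOQ were set to half the LLOQ.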

CYP1A2 = target: T1, CYP1A2 (UniProt P05177)
T1 sequence (whole entry): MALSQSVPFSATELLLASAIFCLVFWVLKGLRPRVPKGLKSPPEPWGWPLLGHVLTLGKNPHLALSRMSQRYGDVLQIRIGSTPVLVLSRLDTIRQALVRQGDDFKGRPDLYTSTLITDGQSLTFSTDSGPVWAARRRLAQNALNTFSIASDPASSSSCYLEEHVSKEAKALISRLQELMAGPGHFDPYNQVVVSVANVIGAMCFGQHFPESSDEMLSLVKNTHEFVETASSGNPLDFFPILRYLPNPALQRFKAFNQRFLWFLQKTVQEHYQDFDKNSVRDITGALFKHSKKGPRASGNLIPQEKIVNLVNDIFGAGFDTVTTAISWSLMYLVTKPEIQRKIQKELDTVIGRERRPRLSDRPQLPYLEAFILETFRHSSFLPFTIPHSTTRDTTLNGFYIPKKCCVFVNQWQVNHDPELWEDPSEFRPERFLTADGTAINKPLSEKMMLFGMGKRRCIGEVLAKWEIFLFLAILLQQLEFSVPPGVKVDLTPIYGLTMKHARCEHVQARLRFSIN
Protocol: as §1

CYP2B6 = target: T2, CYP2B6 (UniProt P20813)
T2 sequence (whole entry): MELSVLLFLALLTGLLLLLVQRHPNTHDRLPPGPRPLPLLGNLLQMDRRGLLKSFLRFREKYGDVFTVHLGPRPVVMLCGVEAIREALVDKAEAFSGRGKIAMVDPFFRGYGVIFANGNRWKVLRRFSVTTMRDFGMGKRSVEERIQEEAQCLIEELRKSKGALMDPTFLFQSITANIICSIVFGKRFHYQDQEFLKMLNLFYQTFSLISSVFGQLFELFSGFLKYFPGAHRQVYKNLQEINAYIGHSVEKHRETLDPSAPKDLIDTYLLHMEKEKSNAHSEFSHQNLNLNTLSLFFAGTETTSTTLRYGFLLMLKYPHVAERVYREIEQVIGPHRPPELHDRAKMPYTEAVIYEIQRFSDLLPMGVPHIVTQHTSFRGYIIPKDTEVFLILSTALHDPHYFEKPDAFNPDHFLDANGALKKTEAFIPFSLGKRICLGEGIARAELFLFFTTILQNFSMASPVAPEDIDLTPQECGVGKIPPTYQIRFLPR
Protocol: as §1

CYP3A4 = CYP3A4 (UniProt P08684)
Protocol: as §1

CYP2C9 = CYP2C9 (UniProt P11712)
Protocol: as §1

CYP2C8 = target: T3, CYP2C8 (UniProt P10632)
T3 sequence (whole entry): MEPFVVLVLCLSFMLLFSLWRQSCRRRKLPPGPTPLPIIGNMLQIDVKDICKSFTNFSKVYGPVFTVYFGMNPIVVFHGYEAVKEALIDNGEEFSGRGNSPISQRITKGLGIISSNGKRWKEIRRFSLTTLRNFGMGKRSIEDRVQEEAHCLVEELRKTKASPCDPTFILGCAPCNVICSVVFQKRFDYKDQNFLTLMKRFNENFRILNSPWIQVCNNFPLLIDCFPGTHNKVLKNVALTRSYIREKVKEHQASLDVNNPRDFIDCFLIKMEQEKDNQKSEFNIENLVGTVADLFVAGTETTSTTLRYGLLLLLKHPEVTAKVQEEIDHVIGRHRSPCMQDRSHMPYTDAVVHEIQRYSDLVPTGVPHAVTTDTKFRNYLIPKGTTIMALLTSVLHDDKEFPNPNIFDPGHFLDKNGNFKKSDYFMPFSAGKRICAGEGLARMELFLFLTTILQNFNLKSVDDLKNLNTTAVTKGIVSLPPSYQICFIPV
Protocol: as §1

CYP2D6 = CYP2D6 (UniProt P10635)
Protocol: as §1

CYP2C19, sequence (P33261 whole entry, canonical isoform): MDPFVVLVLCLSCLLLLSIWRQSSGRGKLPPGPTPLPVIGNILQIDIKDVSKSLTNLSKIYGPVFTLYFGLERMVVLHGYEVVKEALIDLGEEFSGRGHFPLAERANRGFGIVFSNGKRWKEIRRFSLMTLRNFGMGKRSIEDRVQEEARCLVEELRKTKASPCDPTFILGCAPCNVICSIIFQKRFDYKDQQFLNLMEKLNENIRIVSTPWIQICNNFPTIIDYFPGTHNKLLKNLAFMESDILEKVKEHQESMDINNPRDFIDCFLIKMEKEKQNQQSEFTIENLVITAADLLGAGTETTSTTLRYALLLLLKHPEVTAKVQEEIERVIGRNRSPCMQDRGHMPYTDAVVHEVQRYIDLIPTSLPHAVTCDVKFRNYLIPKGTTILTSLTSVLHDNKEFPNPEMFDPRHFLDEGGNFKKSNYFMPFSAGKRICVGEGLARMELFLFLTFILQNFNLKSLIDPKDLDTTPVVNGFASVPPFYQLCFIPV
CYP3A4, sequence (P08684 whole entry): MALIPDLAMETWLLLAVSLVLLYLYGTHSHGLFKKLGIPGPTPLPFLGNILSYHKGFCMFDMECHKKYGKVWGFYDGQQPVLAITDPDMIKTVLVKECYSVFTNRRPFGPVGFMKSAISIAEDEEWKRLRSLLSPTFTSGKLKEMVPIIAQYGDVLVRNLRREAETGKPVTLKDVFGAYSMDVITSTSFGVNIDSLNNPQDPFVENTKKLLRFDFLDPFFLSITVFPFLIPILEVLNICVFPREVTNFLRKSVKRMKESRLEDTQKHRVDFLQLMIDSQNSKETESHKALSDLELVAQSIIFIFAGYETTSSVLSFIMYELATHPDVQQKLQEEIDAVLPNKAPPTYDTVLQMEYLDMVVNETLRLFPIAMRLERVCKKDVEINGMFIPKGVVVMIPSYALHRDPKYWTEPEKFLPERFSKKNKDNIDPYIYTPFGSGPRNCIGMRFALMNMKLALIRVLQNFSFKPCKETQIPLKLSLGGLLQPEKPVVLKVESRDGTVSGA
CYP2C9, sequence (P11712 whole entry): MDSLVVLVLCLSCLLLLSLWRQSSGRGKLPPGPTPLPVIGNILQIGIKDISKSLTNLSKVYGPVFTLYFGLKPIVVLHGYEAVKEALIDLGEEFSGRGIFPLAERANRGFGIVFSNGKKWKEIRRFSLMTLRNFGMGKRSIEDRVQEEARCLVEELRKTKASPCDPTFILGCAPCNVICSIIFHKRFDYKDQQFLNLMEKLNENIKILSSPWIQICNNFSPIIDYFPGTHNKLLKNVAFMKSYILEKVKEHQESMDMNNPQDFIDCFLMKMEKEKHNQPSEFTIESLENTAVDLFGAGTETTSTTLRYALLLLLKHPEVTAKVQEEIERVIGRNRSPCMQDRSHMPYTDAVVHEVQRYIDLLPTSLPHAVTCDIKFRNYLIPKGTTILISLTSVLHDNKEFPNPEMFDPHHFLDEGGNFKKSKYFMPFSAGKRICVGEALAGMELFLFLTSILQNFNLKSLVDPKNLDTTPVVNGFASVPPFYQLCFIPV
CYP2D6, sequence (P10635 whole entry): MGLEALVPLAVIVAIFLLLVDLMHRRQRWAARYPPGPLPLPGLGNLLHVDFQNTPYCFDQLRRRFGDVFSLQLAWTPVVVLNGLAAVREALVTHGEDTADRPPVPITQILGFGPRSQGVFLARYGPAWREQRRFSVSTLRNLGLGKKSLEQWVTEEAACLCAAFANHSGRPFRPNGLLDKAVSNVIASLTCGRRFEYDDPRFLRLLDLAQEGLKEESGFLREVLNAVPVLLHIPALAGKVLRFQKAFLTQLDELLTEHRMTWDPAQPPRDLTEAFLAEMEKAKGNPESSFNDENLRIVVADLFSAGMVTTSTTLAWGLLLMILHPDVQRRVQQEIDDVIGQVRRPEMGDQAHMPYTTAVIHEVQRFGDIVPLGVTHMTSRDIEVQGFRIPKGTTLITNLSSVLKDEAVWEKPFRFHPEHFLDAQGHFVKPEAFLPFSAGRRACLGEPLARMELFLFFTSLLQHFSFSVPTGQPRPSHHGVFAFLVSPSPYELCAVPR

c1ccc2c(c1)cc1ccc3cccc4c5ccccc5c2c1c34 [dibenzo[a,l]pyrene]
CYP enzyme activity
Conditions	CYP1A2	CYP2B6	CYP2C8	CYP2C9	CYP2C19	CYP2D6	CYP3A4
1 µM, treatment time 12 h	2.04	0.84	1	0.921	0.768	1.11	0.927
1 µM, treatment time 24 h	1.35	0.906	0.987	0.918	0.823	0.798	0.778
1 µM, treatment time 48 h	0.763	0.735	0.78	0.804	0.763	0.552	0.619
5 µM, treatment time 12 h	1.61	0.611	0.644	0.753	0.741	1.28	0.768
5 µM, treatment time 24 h	2.27	1.19	0.714	0.89	0.781	0.791	0.672
5 µM, treatment time 48 h	0.603	0.584	0.326	0.472	0.53	0.288	0.385
10 µM, treatment time 12 h	0.515	0.313	0.627	0.395	0.469	1.19	0.543
10 µM, treatment time 24 h	1.39	1.22	0.639	0.732	0.689	0.789	0.471
10 µM, treatment time 48 h	0.286	0.354	0.166	0.233	0.257	0.212	0.118

c1ccc2c(c1)-c1cccc3cccc-2c13 [fluoranthene]
CYP enzyme activity
Conditions	CYP1A2	CYP2B6	CYP2C8	CYP2C9	CYP2C19	CYP2D6	CYP3A4
1 µM, treatment time 12 h	1.01	1.2	1.01	1.02	0.972	0.989	0.901
1 µM, treatment time 24 h	0.943	1.58	1.06	1.09	0.974	0.981	0.98
1 µM, treatment time 48 h	1.07	2.05	1.14	1.18	1.1	0.91	1.03
5 µM, treatment time 12 h	1.33	1.35	0.987	1.17	1.09	1.16	1.01
5 µM, treatment time 24 h	1.09	2.28	1.07	1.3	1.16	1.11	1.16
5 µM, treatment time 48 h	1.27	3.59	1.14	1.34	1.26	1.06	1.28
10 µM, treatment time 12 h	1.41	1.25	0.988	1.15	0.999	1.18	1
10 µM, treatment time 24 h	1.07	2.01	1.04	1.11	0.995	1.08	1.03
10 µM, treatment time 48 h	1.312	3.74	1.2	1.39	1.22	1.06	1.35

c1ccc2c(c1)ccc1ccccc12 [phenanthrene]
CYP enzyme activity
Conditions	CYP1A2	CYP2B6	CYP2C8	CYP2C9	CYP2C19	CYP2D6	CYP3A4
1 µM, treatment time 12 h	0.969	1.02	0.995	1.02	0.946	0.961	0.891
1 µM, treatment time 24 h	0.862	1.18	1.01	1.05	0.961	0.97	0.828
1 µM, treatment time 48 h	0.839	1.15	1.01	1.06	0.981	0.879	0.844
5 µM, treatment time 12 h	1.04	1.25	0.991	1.08	1.06	1.08	0.961
5 µM, treatment time 24 h	1.18	1.98	1.05	1.27	1.15	1.19	1.1
5 µM, treatment time 48 h	1.09	2.15	1.08	1.23	1.16	1.05	1.1
10 µM, treatment time 12 h	1.1	1.12	0.995	1.03	0.985	1.03	0.928
10 µM, treatment time 24 h	1.06	1.75	1.04	1.17	1.11	0.986	0.994
10 µM, treatment time 48 h	1.11	2.29	1.08	1.34	1.17	1.03	1.11

c1cc2ccc3cccc4ccc(c1)c2c34 [pyrene]
CYP enzyme activity
Conditions	CYP1A2	CYP2B6	CYP2C8	CYP2C9	CYP2C19	CYP2D6	CYP3A4
1 µM, treatment time 12 h	1.18	1.1	1.01	0.925	0.893	0.973	0.912
1 µM, treatment time 24 h	1.15	1.42	1.04	1.07	1.04	0.894	0.91
1 µM, treatment time 48 h	1.07	1.3	1.07	1.18	1.16	0.996	0.931
5 µM, treatment time 12 h	1.32	1.41	0.921	0.982	1.06	1.07	0.987
5 µM, treatment time 24 h	1.42	2.27	1.07	1.08	1.06	1.04	1.01
5 µM, treatment time 48 h	1.28	2.75	1.1	1.14	1.15	0.942	1.07
10 µM, treatment time 12 h	1.31	1.33	0.924	0.914	1.02	1.11	0.916
10 µM, treatment time 24 h	1.57	2.4	1.14	1.08	1.18	1.2	1.21
10 µM, treatment time 48 h	1.52	3.6	1.15	1.45	1.3	1.12	1.32
